Measured values taken from US20090176786A1, “Benzoylurea Compounds and Use Thereof” (priority 2005, published 2009).
Read-outs that look alike come from different tables or passages of the source.

Tests used:
Assay type in all cases: in vivo
Plutella xylostella = assay: Test Example 2: cabbage root immersion (systemic), dead pest rate of Plutella xylostella larvae; conditions: for pest or weed control at 5 ppm / pest or weed control at 25 ppm / pest or weed control at 1 ppm: Plutella xylostella, 120 h; for pest or weed control at 5 ppm: read-out: dead pest rate; for pest or weed control at 1 ppm: test concentration of 1 ppm
Experimental: In 0.25 mL of a mixture solution of Sorgen TW-20 (manufactured by Daiichi Industries Pharmaceuticals, Co., Ltd.) and acetone (mixture volume ratio; Sorgen TW-20:acetone=1:19), 2.5 mg of the present compound (1), (2), (3), (4), (7), (10), (11), (12), (16), (18), (19), (20), (21), (22), (25), (30), (36), (37), (41), (42), (52), (54), (56), (57), (60), (62), (105) or (109) was dissolved. The solution was diluted with ion-exchanged water so that the active ingredient concentration became to a predetermined concentration to prepare a pesticidal solution for test of the test compound. The root part of cabbages in the fourth leaf period were washed with tap water to remove soils, and then immersed in the pesticidal solution for test. After 5 days from immersion of the root part, the root part was removed, and the leaves and stems were put in a cup (volume; 180 mL). In the cup 10 second-instar larvae of Plutella xylostella were released, and the cup was stored at 24° C. After 5 days, the number of dead pests was counted, and the dead pest rate was calculated by the following equation:
(§1) Dead pest rate(%)=(the number of dead pests/the number of tested pests)×100
The test concentrations of the other present compounds were 25 ppm.

[1] = system: Frankliniella occidentalis; assay: Test Example 4: spray on cucumber, control value against Frankliniella occidentalis larvae; conditions: 168 h, spray 20 ml/cup on cucumber, 30 larvae, seven days after spraying; for pest or weed control at 12.5 ppm: test concentration 12.5 ppm; for pest or weed control at 50 ppm: test concentration 50 ppm
Experimental: The obtained preparation was diluted with water so that the active ingredient concentration became to a predetermined concentration to prepare a spray solution for test. […] were planted in polyethylene cups, and were grown until the first true leaf was developed. The spray solution for test prepared above was sprayed at the rate of 20 ml/cup on the cucumber. After the pesticidal solution sprayed onto the cucumber was dried, the first true leaf was cut off and then placed on a filter paper (diameter: 70 mm) containing water in a polyethylene cup (diameter: 110 mm). On the cucumber leaf, 30 larvae of Frankliniella occidentalis were released, and the polyethylene cup was capped. Seven days after spraying, the number of pests surviving on the cucumber leaf was counted, and a control value was calculated by the following equation: Control value(%)={1−(Cb×Tai)/(Cai×Tb)}×100 wherein, each symbol has following meaning: Cb: the number of pests before treatment in a non-treated area Cai: the number of pests at the time of observation in a non-treated area Tb: the number of pests before treatment in a treated-area Tai: the number of pests at the time of observation in a treated-area. […] The test concentrations of the other present compounds were 50 ppm.

Spondoptela litura = assay: Test Example 3: treated artificial diet (Insecta LF), dead pest rate of Spondoptela litura larvae; conditions: 144 h, 2 mL on Insecta LF diet, 5 fourth-instar larvae, after 6 days
From the text: Ten parts of the present compound (1) to (5), (7) to (13), (18) to (33), (35) to (49), (52) to (56), (58) to (61), (71), (73) to (77), (79), (80), (82), (83), (93), (94), (95), (96), (97), (100) to (109), (111), (112), (115), (117), (119), (121), or (123) to (133), 35 parts of white carbon containing 50 parts of polyoxyethylene alkyl ether sulfate ammonium salt, and 55 parts of water were mixed, and finely ground by a wet grinding method to obtain a preparation. The obtained preparation was diluted with water so that the active ingredient concentration became to 500 ppm to prepare a pesticidal solution for test. On the bottom of a polyethylene cup having a diameter of 5.5 cm, a filter paper having a diameter of 5.5 cm was placed, on which Insecta LF (Nippon Agriculture Industries, Co., Ltd.) sliced in a thickness of 6 mm and further cut half was laid, and to which 2 mL of the above-described pesticidal solution for test was added. After air-dried, 5 fourth-instar larvae of Spondoptela litura were released in the cup, and the cup was capped. After 6 days, the number of dead pests was counted, and the dead pest rate was calculated by the following equation:
as §1

[2] = test concentration of 5 ppm, root immersion 5 days, 10 second-instar larvae, after 5 days at 24° C.
[3] = test concentration 25 ppm, root immersion 5 days, 10 second-instar larvae, after 5 days at 24° C.
[4] = root immersion 5 days, 10 second-instar larvae, after 5 days at 24° C.

SMILES: CN(C(=O)NC(=O)c1c(F)cccc1F)c1ccc(SC(F)(F)F)cc1 [(7)]
- pest or weed control at 5 ppm (Plutella xylostella; [2]): 100%
- pest or weed control at 12.5 ppm [1]: 100%

SMILES: COCN(C(=O)c1c(F)cccc1F)C(=O)N(C)c1ccc(SC(F)(F)F)cc1F [(11)]
- pest or weed control at 25 ppm (Plutella xylostella; [3]): 100%

SMILES: CCSc1ccc(N(C)C(=O)N(C)C(=O)c2c(F)cccc2F)c(F)c1 [(16)]
- pest or weed control at 25 ppm (Plutella xylostella; [3]): 100%

SMILES: CN(C(=O)NC(=O)c1c(F)cccc1F)c1ccc([S+]([O-])C(F)(F)F)cc1F (stereo not shown) [(18)]
- pest or weed control at 1 ppm (Plutella xylostella; [4]): 100%

SMILES: CN(C(=O)c1c(F)cccc1F)C(=O)N(C)c1ccc([S+]([O-])C(F)(F)F)cc1F (stereo not shown) [(19)]
- pest or weed control at 1 ppm (Plutella xylostella; [4]): 100%

SMILES: CN(C(=O)c1c(F)cccc1F)C(=O)N(C)c1ccc(S(=O)(=O)C(F)(F)F)cc1F [(21)]
- pest or weed control at 1 ppm (Plutella xylostella; [4]): 100%

SMILES: CN(C(=O)c1c(F)cccc1F)C(=O)N(C)c1ccc(SC(F)(F)C(F)(F)C(F)(F)F)cc1F [(22)]
- pest or weed control at 5 ppm (Plutella xylostella): 100%
- pest or weed control at 3.2 ppm ([1]; test concentration 3.2 ppm): 100%

SMILES: CN(C(=O)NC(=O)c1c(F)cccc1Cl)c1ccc(SC(F)(F)C(F)F)cc1F [(23)]
- pest or weed control at 12.5 ppm [1]: 100%

SMILES: CN(C(=O)NC(=O)c1c(F)cccc1F)c1ccc([S+]([O-])C(F)(F)C(F)F)cc1F (stereo not shown) [(24)]
- pest or weed control at 12.5 ppm [1]: 100%

SMILES: CN(C(=O)NC(=O)c1c(F)cccc1F)c1ccc(S(=O)(=O)C(F)(F)C(F)F)cc1F [(25)]
- pest or weed control at 5 ppm (Plutella xylostella; [2]): 100%
- pest or weed control at 12.5 ppm [1]: 100%

SMILES: CN(C(=O)NC(=O)c1c(F)cccc1F)c1ccc(SC(F)(F)C(F)(F)C(F)(F)F)cc1F [(28)]
- pest or weed control at 50 ppm [1]: 100%

SMILES: CN(C(=O)NC(=O)c1c(F)cccc1Cl)c1ccc(SC(F)(F)C(F)(F)C(F)(F)F)cc1F [(29)]
- pest or weed control at 50 ppm [1]: 100%

SMILES: CN(C(=O)NC(=O)c1c(F)cccc1F)c1ccc(SC(F)(F)C(F)(F)F)cc1F [(30)]
- pest or weed control at 5 ppm (Plutella xylostella; [2]): 100%
- pest or weed control at 50 ppm [1]: 100%

SMILES: CN(C(=O)NC(=O)c1c(F)cccc1F)c1ccc(SC(F)(F)C(F)C(F)(F)F)cc1F (stereo not shown) [(31)]
- pest or weed control at 50 ppm [1]: 100%

SMILES: CN(C(=O)NC(=O)c1c(F)cccc1F)c1ccc(SC(F)F)cc1Cl [(34)]
- pest or weed control at 50 ppm [1]: 100%

SMILES: Cc1cc(SC(F)(F)F)ccc1N(C)C(=O)NC(=O)c1c(F)cccc1F [(36)]
- pest or weed control at 5 ppm (Plutella xylostella; [2]): 100%
- pest or weed control at 12.5 ppm [1]: 100%

SMILES: CN(C(=O)NC(=O)c1c(F)cccc1F)c1ccc(C(=O)OC(C)(C)C)cc1F [(37)]
- dead pest rate (Plutella xylostella; [3]): 100%

SMILES: CN(C(=O)c1c(F)cccc1F)C(=O)N(C)c1ccc(S(=O)(=O)C(F)(F)C(F)F)cc1F [(40)]
- pest or weed control at 12.5 ppm [1]: 100%

SMILES: CCN(C(=O)N(C)C(=O)c1c(F)cccc1F)c1ccc(SC(F)(F)F)cc1F [(41)]
- pest or weed control at 25 ppm (Plutella xylostella; [3]): 100%
- pest or weed control at 50 ppm [1]: 100%

SMILES: Cc1cc(SC(F)(F)F)ccc1N(C)C(=O)N(C)C(=O)c1c(F)cccc1F [(42)]
- pest or weed control at 25 ppm (Plutella xylostella; [3]): 100%

SMILES: CN(C(=O)c1c(F)cccc1Cl)C(=O)N(C)c1ccc(SC(F)(F)C(F)(F)C(F)(F)F)cc1F [(45)]
- pest or weed control at 50 ppm [1]: 100%

SMILES: CN(C(=O)c1c(F)cccc1F)C(=O)N(C)c1ccc(SC(F)(F)C(F)C(F)(F)F)cc1F (stereo not shown) [(47)]
- pest or weed control at 50 ppm [1]: 100%

SMILES: Cc1c(SC(F)(F)C(F)(F)F)ccc(N(C)C(=O)N(C)C(=O)c2c(F)cccc2F)c1C [(49)]
- pest or weed control at 50 ppm [1]: 100%

SMILES: CC(=O)N(C(=O)c1c(F)cccc1F)C(=O)N(C)c1ccc(SC(F)(F)F)cc1F [(52)]
- pest or weed control at 5 ppm (Plutella xylostella; [2]): 100%

SMILES: CN(C(=O)N(C(=O)c1c(F)cccc1F)S(C)(=O)=O)c1ccc(SC(F)(F)F)cc1F [(54)]
- pest or weed control at 25 ppm (Plutella xylostella; [3]): 100%

SMILES: CCN(C(=O)c1c(F)cccc1F)C(=O)N(C)c1ccc(SC(F)(F)F)cc1F [(56)]
- pest or weed control at 25 ppm (Plutella xylostella; [3]): 100%
- pest or weed control at 50 ppm [1]: 100%

SMILES: CN(C(=O)NC(=O)c1c(F)cccc1F)c1ccc(SC(F)F)cc1F [(57)]
- pest or weed control at 5 ppm (Plutella xylostella; [2]): 100%

SMILES: C#CCN(C(=O)c1c(F)cccc1F)C(=O)N(C)c1ccc(SC(F)(F)F)cc1F [(60)]
- pest or weed control at 25 ppm (Plutella xylostella; [3]): 100%

SMILES: CN(C(=O)N(C(=O)c1c(F)cccc1F)C1CC1)c1ccc(SC(F)(F)F)cc1F [(69)]
- pest or weed control at 50 ppm [1]: 100%

SMILES: CN(C(=O)N(CC1CC1)C(=O)c1c(F)cccc1F)c1ccc(SC(F)(F)F)cc1F [(71)]
- pest or weed control at 500 ppm (Spondoptela litura): 100%
- pest or weed control at 50 ppm [1]: 100%

SMILES: CSCCN(C(=O)c1c(F)cccc1F)C(=O)N(C)c1ccc(SC(F)(F)F)cc1F [(73)]
- pest or weed control at 50 ppm [1]: 100%

SMILES: CN(C(=O)N(Cc1ccccn1)C(=O)c1c(F)cccc1F)c1ccc(SC(F)(F)F)cc1F [(76)]
- pest or weed control at 50 ppm [1]: 100%

SMILES: CN(C(=O)N(C(=O)c1c(F)cccc1F)N1CCOCC1)c1ccc(SC(F)(F)F)cc1F [(79)]
- pest or weed control at 500 ppm (Spondoptela litura): 100%

SMILES: CN(C(=O)N(CCN1CCOCC1)C(=O)c1c(F)cccc1F)c1ccc(SC(F)(F)F)cc1F [(80)]
- pest or weed control at 500 ppm (Spondoptela litura): 100%

SMILES: CN(C(=O)NC(=O)c1c(Cl)cccc1Cl)c1ccc(SC(F)(F)F)cc1F [(95)]
- pest or weed control at 500 ppm (Spondoptela litura): 100%

SMILES: CN(C(=O)c1c(Cl)cccc1Cl)C(=O)N(C)c1ccc(SC(F)(F)F)cc1F [(96)]
- pest or weed control at 500 ppm (Spondoptela litura): 100%

SMILES: CN(C(=O)c1c(F)cccc1F)C(=O)N(C)c1ccc(SC(F)(F)F)cc1Cl [(104)]
- pest or weed control at 50 ppm [1]: 100%

SMILES: Cc1cc(SC(F)(F)C(F)(F)F)ccc1N(C)C(=O)NC(=O)c1c(F)cccc1F [(105)]
- pest or weed control at 25 ppm (Plutella xylostella; [3]): 100%
- pest or weed control at 50 ppm [1]: 100%

SMILES: Cc1cc(SC(F)(F)C(F)(F)F)ccc1N(C)C(=O)N(C)C(=O)c1c(F)cccc1F [(106)]
- pest or weed control at 50 ppm [1]: 100%

SMILES: CN(C(=O)NC(=O)c1c(F)cccc1F)c1ccc(SC(F)(F)C(F)(F)F)cc1Cl [(107)]
- pest or weed control at 50 ppm [1]: 100%

SMILES: CN(C(=O)c1c(F)cccc1F)C(=O)N(C)c1ccc(SC(F)(F)C(F)(F)F)cc1Cl [(108)]
- pest or weed control at 50 ppm [1]: 100%

SMILES: CN(C(=O)NC(=O)c1c(F)cccc1F)c1ccc(SC(F)(F)C(F)OC(F)(F)F)cc1F (stereo not shown) [(109)]
- pest or weed control at 25 ppm (Plutella xylostella; [3]): 100%
- pest or weed control at 50 ppm [1]: 100%

SMILES: CN(C(=O)c1c(F)cccc1F)C(=O)N(C)c1ccc(SC(F)(F)C(F)OC(F)(F)F)cc1F (stereo not shown) [(110)]
- pest or weed control at 50 ppm [1]: 100%

SMILES: CN(C(=O)c1c(F)cccc1F)C(=O)N(C)c1ccc(SC(F)(F)F)cc1 [(117)]
- pest or weed control at 500 ppm (Spondoptela litura): 100%
- pest or weed control at 50 ppm [1]: 100%

SMILES: COc1cccc(CN(C(=O)c2c(F)cccc2F)C(=O)N(C)c2ccc(SC(F)(F)F)cc2F)c1 [(119)]
- pest or weed control at 500 ppm (Spondoptela litura): 100%

SMILES: CSc1ccc(N(C)C(=O)NC(=O)c2c(F)cccc2F)c(C(F)(F)F)c1 [(121)]
- pest or weed control at 500 ppm (Spondoptela litura): 100%

SMILES: Cc1cc(SC(F)(F)C(F)F)ccc1N(C)C(=O)N(C)C(=O)c1c(F)cccc1F [(131)]
- pest or weed control at 50 ppm [1]: 100%
